Article PMC12560410, “Multi spectroscopic investigations with molecular docking and molecular dynamics simulation of the binding mechanism of molnupiravir to bovine serum albumin” (BMC Chemistry, 2025)

Legend:
[1] = biological target: T1, BSA (Bos taurus, UniProt P02769); assay: Synchronous fluorescence spectroscopy of BSA with MOL; format: binding, bovine; settings: MOL 0–180 µM, pH 7.4
T1 construct: purchased BIOMARK laboratories (Pune, Maharashtra, India)
Procedure: Initially, the synchronous fluorescence spectra of BSA were acquired at a concentration of 3µM, and then its mixtures with MOL ranged from 30 to 180 µM at pH 7.4. These spectra were obtained at spectral intervals of Δλ = 15 nm as well as Δλ = 60 nm, with a 10 mm path quartz cell and scanning rate of 1000 nanometers per minute (nm/min).
The polarity of the surrounding environment of the fluorescent amino acids in BSA is influenced by ligand interaction, and this has been studied using synchronous fluorescence spectroscopy. In this study, a scanning interval (Δλ) of 60 nm and 15 nm was set between the excitation and emission wavelengths, allowing for the observation of polarity alterations surrounding tyrosine (Tyr) and tryptophan (Trp) residues, respectively.
Spectra of BSA synchronous fluorescence were acquired for BSA solutions both with and without the addition of MOL (Fig. 4). […] The Ratios of Synchronous Fluorescence Quenching (RSFQ) were determined using Eq. 5 as follows: […]

[2] = biological target: T2, bovine serum albumin (Bos taurus, UniProt P02769); assay: FT-IR spectroscopy of BSA with MOL; format: binding; settings: BSA 3 µM, MOL 180 µM, pH 7.4
T2 construct: purchased BIOMARK laboratories (Pune, Maharashtra, India)
Procedure: FT-IR spectra of 3 µM bovine serum albumin solution in tris-HCl buffer, BSA (3 µM) in the presence of MOL (180 µM), and MOL alone (180 µM) at pH 7.4 were recorded using Tensor27—S2887 FT-IR spectrometer (Bruker, Germany) from 4000 to 1000 cm^− 1. Baseline correction and water vapor subtraction were applied prior to analysis.
FT-IR spectroscopy was utilized to examine the secondary structure of BSA in free, drug-bound forms and free drug by recording changes in spectra as shown in Fig. S5. However, slight differences were observed between these spectra. […] The results from the UV absorption and fluorescence analysis are consistent with this observation.

[3] = biological target: T3, bovine serum albumin (BSA) (Bos taurus, UniProt P02769); assay: Site marker competition (indomethacin site I, diazepam site II) for MOL binding to BSA; settings: 295 K, pH 7.4; for Kd: read-out: Log Ka (converted)
T3 construct: purchased BIOMARK laboratories (Pune, Maharashtra, India)
Procedure: This study was conducted using two specific site probes: indomethacin for site I and diazepam for site II. In these experiments, the concentrations of BSA and the site probes were kept constant at 3 µM and 10 µM, respectively, while the concentration of MOL was varied from 30 to 180 µM. Fluorescence intensity was measured at 350 nm with excitation at 295 nm, and all measurements were carried out at 295 K and pH 7.4. The binding equilibrium constants (Ka) of MOL to BSA alone, indomethacin-BSA, and diazepam-BSA complexes were compared.
The apparent binding constants (Ka) were calculated by plotting log[(F₀–F)/F] versus log[Q] in the absence and presence of site markers Figure S6.

[4] = biological target: T3, bovine serum albumin (BSA); assay: Fluorescence quenching of BSA by MOL (Stern–Volmer and modified Stern–Volmer analysis, thermodynamics); format: binding; settings: for Ksv (Stern–Volmer quenching constant) / n (number of binding sites) / Kd: pH 7.4; for Kd: read-out: Log Ka (converted)
Procedure: The fluorescence of the tyrosine (Tyr) and tryptophan (Trp) residues observed for solutions that have a fixed BSA concentration 3 µM and different concentrations of MOL (30–180 µM) at pH 7.4. The emission spectra were obtained between 300 and 500 nm. The excitation wavelength was 295 nm, at temperatures 285, 290, 295, 303, and 308 K. […]
Utilizing the Stern–Volmer equation, the quenching mechanism was identified (Eq. 1):1 [drawing 1]
The fluorescence intensities of BSA in absence of MOL are indicated as [drawing 2] while those measured in the presence of MOL are referred to as [drawing 3] . The term [drawing 4] represents the Stern–Volmer quenching rate constant. MOL concentration represents the quencher concentration [drawing 5] .
F^0/F was plotted versus [Q], then the slope was calculated to obtain the values of Ksv as shown in the Stern–Volmer equation (Eq. 1) to assess the experimental results as shown in Fig. 3.
IFE-corrected fluorescence intensity values were calculated using the following formula: […]
The modified Stern–Volmer equation is used to determine the stoichiometry (n) and equilibrium association constant (Ka), which govern how small molecules interact with specific binding sites on a macromolecule (Eq. 2).2 [drawing 7]
where [drawing 8] represents the number of binding sites and [drawing 9] represents the binding constant, as calculated from the plots of log [(F0–F)/F] against log [Q]. The plot of the modified Stern–Volmer equation was illustrated in Fig. S2. […] The stoichiometry of the binding interaction concerning MOL and BSA was approximately 1:1, as indicated by the n value being close to unity.
The intercept and slope of the plot of ln Ka vs. 1/T were used to determine ΔS (entropy change) and ΔH (enthalpy change), respectively in accordance with the Vant’s Hoff equation (Eq. 3), as shown in Table 2.
Furthermore, the Gibbs–Helmholtz equation determines ΔG (Eq. 4).3 [drawing 10] 4 [drawing 11]
where ΔG denotes the Gibbs free energy change and R denotes the universal gas constant (8.314 J mol^−1 k^−1) while T is the absolute temperature (K). […] The negative values of both ΔH and ΔS indicate that the binding of MOL to BSA is primarily governed by hydrogen bonding and van der Waals interactions rather than hydrophobic forces. The thermodynamic results, was supported by docking analysis, confirming that hydrogen bonding and van der Waals contacts are the dominant driving forces in MOL–BSA complex formation. […] Moreover, the spontaneity of the interaction could reflect the favorable conformational stability of the MOL-BSA complex.

[5] = biological target: T3, bovine serum albumin (BSA); assay: Effect of common ions on binding affinity of MOL to BSA; settings: 297 K, pH 7.4
Text: […] […] These findings can be used for further investigations into how different ions influence the binding affinity of MOL to BSA.
Ka′/Ka is the binding constant divided by the binding constant in the absence of the ion; r is the correlation coefficient.

[6] = design: method as in PMID 39912659, PMID 37526305; settings: following oral administration; hydrolyzed by esterases to NHC; cited from earlier work
[7] = van't Hoff plot of ln Ka vs 1/T, 285–308 K

T3 sequence (P02769 25-607): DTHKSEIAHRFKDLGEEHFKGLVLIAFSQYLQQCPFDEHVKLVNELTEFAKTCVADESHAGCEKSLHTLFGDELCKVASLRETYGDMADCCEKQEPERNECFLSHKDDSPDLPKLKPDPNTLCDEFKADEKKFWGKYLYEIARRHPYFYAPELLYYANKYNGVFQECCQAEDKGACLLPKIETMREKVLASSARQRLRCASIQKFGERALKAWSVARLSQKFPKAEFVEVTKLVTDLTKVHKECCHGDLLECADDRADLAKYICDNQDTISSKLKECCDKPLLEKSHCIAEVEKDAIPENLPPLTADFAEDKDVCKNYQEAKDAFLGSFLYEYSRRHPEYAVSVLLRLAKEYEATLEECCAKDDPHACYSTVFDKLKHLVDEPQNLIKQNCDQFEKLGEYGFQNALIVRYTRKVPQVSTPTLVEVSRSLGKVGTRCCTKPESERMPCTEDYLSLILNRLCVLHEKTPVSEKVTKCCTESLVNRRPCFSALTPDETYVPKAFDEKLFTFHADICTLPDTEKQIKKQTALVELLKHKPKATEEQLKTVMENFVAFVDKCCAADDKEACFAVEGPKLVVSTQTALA
T1 sequence (P02769 25-607): as above
T2 sequence (P02769 25-607): as above

Q: For `CC(C)C(=O)OC[C@H]1O[C@@H](n2ccc(NO)nc2=O)[C@H](O)[C@@H]1O` [MOL, Molnupiravir], which “red shift in λmax of BSA synchronous fluorescence” value ([1]; Δλ = 15 nm (Tyr residues)) is on record?
A: The value was “about 2 nm”.

Q: And the “shift in λmax of BSA synchronous fluorescence” value ([1]; Δλ = 60 nm)?
A: The value was “no shift was detected”.

Q: And the “amide band of BSA after addition of MOL” value [2]?
A: The value was “shifted from 1610 cm^−1 to 1636 cm^−1”.

Q: What about the Kd ([3]; in presence of diazepam (site II probe, 10 µM)) of the same molecule?
A: Its Kd is 361 µM.

Q: What about the Kd ([3]; in presence of indomethacin (site I probe, 10 µM)) of the same molecule?
A: Its Kd is 56.3 µM.

Q: What about the “preferential binding site on BSA” value ([3]; site marker displacement) of the same molecule?
A: Its value is “Sudlow’s site II”.

Q: And the “ΔG (Gibbs free energy change)” value ([4]; 285 K)?
A: The value was -23.915 KJ mol ^− 1.

Q: And the “Ksv (Stern–Volmer quenching constant)” value ([4]; 285 K)?
A: Its value is 11100 L/mol.

Q: And the “n (number of binding sites)” value ([4]; 285 K)?
A: Its value is 1.072.

Q: And the Kd ([4]; 285 K)?
A: Its Kd is 41.4 µM.

Q: What about the “ΔG (Gibbs free energy change)” value ([4]; 290 K) of the same molecule?
A: Its value is -23.546 KJ mol ^− 1.

Q: And the “Ksv (Stern–Volmer quenching constant)” value ([4]; 290 K)?
A: The value was 9635 L/mol.

Q: What about the “n (number of binding sites)” value ([4]; 290 K) of the same molecule?
A: The value was 1.077.

Q: What about the Kd ([4]; 290 K) of the same molecule?
A: The Kd was 57.4 µM.

Q: And the “difference between IFE-corrected and uncorrected Ksv” value ([4]; 295 K)?
A: The value was 0.9%.

Q: What about the “ΔG (Gibbs free energy change)” value ([4]; 295 K) of the same molecule?
A: The value was -23.252 KJ mol ^− 1.

Q: And the “corrected Stern–Volmer constant (Ksv)” value ([4]; 295 K, inner filter effect (IFE) corrected)?
A: The value was 7160 L/mol.

Q: And the “Ksv (Stern–Volmer quenching constant)” value ([4]; 295 K)?
A: Its value is 7096 L/mol.

Q: What about the “n (number of binding sites)” value ([4]; 295 K) of the same molecule?
A: The value was 1.086.

Q: And the Kd ([4]; 295 K)?
A: Its Kd is 76.3 µM.

Q: What about the “uncorrected Stern–Volmer constant (Ksv)” value ([4]; 295 K, uncorrected) of the same molecule?
A: Its value is 7096 L/mol.

Q: What about the “ΔG (Gibbs free energy change)” value ([4]; 303 K) of the same molecule?
A: Its value is -22.276 KJ mol ^− 1.

Q: And the “Ksv (Stern–Volmer quenching constant)” value ([4]; 303 K)?
A: The value was 5288 L/mol.

Q: What about the “n (number of binding sites)” value ([4]; 303 K) of the same molecule?
A: The value was 1.066.

Q: And the Kd ([4]; 303 K)?
A: Its Kd is 144 µM.

Q: What about the “ΔG (Gibbs free energy change)” value ([4]; 308 K) of the same molecule?
A: The value was -21.618 KJ mol ^− 1.

Q: And the “Ksv (Stern–Volmer quenching constant)” value ([4]; 308 K)?
A: The value was 3800 L/mol.

Q: What about the “n (number of binding sites)” value ([4]; 308 K) of the same molecule?
A: The value was 1.055.

Q: What about the Kd ([4]; 308 K) of the same molecule?
A: The Kd was 216 µM.

Q: What about the fluorescence quenching mechanism ([4]; Ksv inversely proportional to temperature) of the same molecule?
A: The fluorescence quenching mechanism was “static interaction”.

Q: What about the “ΔH (enthalpy change)” value [4, 7] of the same molecule?
A: The value was -52.434 KJ.mol ^− 1.

Q: And the “ΔS (entropy change)” value [4, 7]?
A: The value was -99.63 J mol^− 1K^− 1.

Q: What about the “Ka’/ Ka (binding constant divided by binding constant in absence of the ion)” value ([5]; Ca^2+ added (75 µM)) of the same molecule?
A: Its value is 0.9046.

Q: What about the Kd ([5]; Ca^2+ added (75 µM), read-out: Ka’ (binding constant) (converted)) of the same molecule?
A: The Kd was 674 µM.

Q: What about the “Ka’/ Ka (binding constant divided by binding constant in absence of the ion)” value ([5]; Co^2+ added (75 µM)) of the same molecule?
A: The value was 1.6233.

Q: What about the Kd ([5]; Co^2+ added (75 µM), read-out: Log Ka (converted)) of the same molecule?
A: Its Kd is 375 µM.

Q: And the “Ka’/ Ka (binding constant divided by binding constant in absence of the ion)” value ([5]; Cu^2+ added (75 µM))?
A: Its value is 0.2573.

Q: What about the Kd ([5]; Cu^2+ added (75 µM), read-out: Log Ka (converted)) of the same molecule?
A: Its Kd is 2370 µM.

Q: And the “Ka’/ Ka (binding constant divided by binding constant in absence of the ion)” value ([5]; No ion)?
A: The value was 1.

Q: What about the Kd ([5]; No ion, read-out: Ka’ (binding constant) (converted)) of the same molecule?
A: Its Kd is 609 µM.

Q: What about the “systemic plasma concentration of parent drug” value [6] of the same molecule?
A: Its value is “no significant concentrations of the parent drug are detected systemically in plasma”.
